Values quoted from earlier work in US20250082651A1, “GANAXOLONE FOR USE IN TREATING GENETIC EPILEPTIC DISORDERS” (Marinus Pharmaceuticals, Inc., priority 2017, published 2025).

Key:
[1] = test system: patients with CDKL5-related epilepsy; conditions: CDKL5 deficiency disorder patients; cited from earlier work
[2] = human plasma; cited from earlier work

Row | Structure (SMILES) | Responder rate at 12 months [1] [%] | Half-life [2]
1 | CCCC(CCC)C(=O)O [valproic acid] | 9 | 
2 | CC(=O)[C@H]1CC[C@H]2[C@@H]3CC[C@H]4C[C@H](O)CC[C@]4(C)[C@H]3CC[C@]12C [Allopregnanolone, 3α,5α-tetrahydroprogesterone, reference compound] |  | about 45 minutes
